# In patent publication US20190300573A1, “HUMAN MYOSIN PEPTIDES” (APITOPE INTERNATIONAL NV, priority 2016, published 2019):
# Assays:
# [1] = tested on: α-myosin sensitized splenic cells; assay: Testing the antigenicity of T cell epitopes (stimulation index, 3H-thymidine incorporation); type: cell-based, DR4 mice; settings: for stimulation index: 3H-thymidine incorporation, peptides 30, 3 and 0.3 μg/ml, screening repeated three times, FIG. 8; for stimulation at the lowest concentration: 0.3 μg/ml
# Method: The antigenicity of predicted peptides was assessed T cell proliferation against human cardiac myosin was measured by comparison of their stimulation index determined by 3H-thymidine incorporation assay (in brief: cells were pulsed with ^3H-Thymidine for 18 hours at the same conditions by adding 25 μl of diluted ^3H-Tymidine solution in RPMI to each well (final concentration 0.5 μCi/well). Finally, the cells were kept at −20 C.° at least overnight until ready to harvest. After thawing the plates, the cells were harvested onto glass fibre filters (Cox Scientific) using a Combo Cell Harvester (Skatron). Then the filters were soaked in Betaplate Scint liquid scintillation cocktail (Perkin Elmer) and sealed into sample bags (Perkin Elmer). Finally, the sealed bags containing the filters were placed into cassettes and the amount of scintillation was read using 1450 Microbeta Liquid Scintillation Counter (Perkin Elmer) in order to determine the level of ^3H-tymidine incorporation.). The α-myosin sensitized splenic cells were challenged with each peptide (GenScript (USA), peptide concentrations were 30, 3 and 0.3 μg/ml) or whole myosin (30 μg/ml).
# [2] = tested on: cardiac myosin responsive T cell proliferation; assay: Anti-myosin T cell proliferation of splenocytes from EAM DR4 mice; type: in vivo; settings: EAM induction, FIG. 3
# Method: (§1) Appropriate amount of myosin extract was diluted to the desired volume with PBS, then mixed with equal volume of complete Freund's adjuvant (CFA; Difco) containing 8 mg/ml of heat-killed Mycobacterium Tuberculosis (hkMTB; Difco). The mixture was sonicated for 20 min, then mixed well by a 1 ml syringe until the emulsion became very thick and viscous. 100 μl of the emulsion was applied subcutaneously from tail base at a dose of 100 μg myosin/mouse. On day 0 and 2, 200 ng Pertussis toxin (Sigma Aldrich) in 0.5 ml of PBS was intraperitoneally injected to each mouse as a second adjuvant. In the first trial, the myosin and Pertussis toxin injections were repeated after a week. […] The development of EAM was assessed by echocardiographic and histopathological measurements after 3 weeks from myosin injection. […]
# The splenocytes obtained from myosin immunised mice (as described herein) were cultured in 96 well plates in X-Vivo 15 media (Lonza) at a concentration of 5×10^5 cells/well. […] Finally, the cells were kept at −20 C.° at least overnight until ready to harvest. […]
# (§2) 2 different combinations of peptides were used for the therapy. […] Mice were terminated 3 weeks after the myosin injection and disease development and adaptive immune responses against cardiac myosin were assessed.
# EAM induced DR4 mice [3] = assay: Echocardiographic analysis of left ventricle function in EAM DR4 mice; type: in vivo; settings: n=5
# Method: (§3) Appropriate amount of myosin extract was diluted to the desired volume with PBS, then mixed with equal volume of complete Freund's adjuvant (CFA; Difco) containing 8 mg/ml of heat-killed Mycobacterium Tuberculosis (hkMTB; Difco). The mixture was sonicated for 20 min, then mixed well by a 1 ml syringe until the emulsion became very thick and viscous. 100 μl of the emulsion was applied subcutaneously from tail base at a dose of 100 μg myosin/mouse. On day 0 and 2, 200 ng Pertussis toxin (Sigma Aldrich) in 0.5 ml of PBS was intraperitoneally injected to each mouse as a second adjuvant. In the first trial, the myosin and Pertussis toxin injections were repeated after a week. However, this second set of injections was excluded in later experiments to avoid induction of a too severe disease that might obscure any benefit of the peptide therapy. Control groups received PBS in hkMTB-boosted CFA (but without human cardiac myosin) as well as Pertussis toxin. The development of EAM was assessed by echocardiographic and histopathological measurements after 3 weeks from myosin injection. Spleens were collected to measure cardiac myosin responsive T cell proliferation. Bloods were collected to measure circulating anti-myosin antibody levels.
# At the end of the 3 week experiment, the mice were anesthetised by intraperitoneal injection of Tribromoethanol (Avertin; SigmaAldrich) at a dose of 250 mg/kg. The left ventricle functions and diameters were analysed using Vevo 770 high-frequency, high-resolution echocardiography system (Visual Sonics) just before terminating the mice. The anesthetised mice were laid supine and butted to a heated platform by surgical tape stripes. Chest hair were removed by applying hair removal cream and Aquasonic Clear ultrasound transmission gel (Parker Laboratories) was applied to the hairless chest. […]
# as §2
# EAM induced DR4 mice [4] = assay: Histopathological analysis of myocarditis (H&E inflammatory cell infiltrate); type: in vivo; settings: EAM induction, p=0.0079, Fisher's exact test
# Method: as §3
# The heart was dissected and fixed for 24 hours in 10% (v/v) formalin in PBS for histological analyses. […]
# DR4 mice = type: in vivo; settings: first trial, myosin and Pertussis toxin injections repeated after a week; after 3 weeks
# Method: as §1
# In our first trial, it was planned to follow disease progression using echocardiography at 3 and 6 weeks. However, sudden death occurred in 3 out of 5 mice in the α-myosin treated group after 3 weeks, whereas the animals in the control group were all healthy and no signs of myocarditis were detected in their hearts by echocardiographic measurements (data not shown). […]
# Body weights of the mice were measured before the induction of EAM and at termination. […]
# [5] = tested on: circulating anti-myosin antibodies; assay: ELISA of circulating anti-myosin antibody levels in EAM DR4 mice; type: in vivo; settings: EAM induction, n=5
# Method: as §3, with “Spleens were collected to measure cardiac myosin responsive T cell proliferation. Bloods were collected to measure circulating anti-myosin antibody levels.” left out
# After incubation with the alkaline phosphatase-conjugated antibodies, once again the plates were washed four times with PBST. […] Once the colour developed, the reaction was stopped by adding 50 μL of 2M NaOH (Sigma, UK) and the absorbance was measured using LT-5000MS ELISA Reader (Labtech) at a wavelength of 405 nm. […]
substance,measurement,setting,value
VNPYKWLPVYNAEVV (T cell epitope peptide),stimulation index,[1],stronger stimulation than the rest of them
PHIFSISDNAYQYML (T cell epitope peptide) [PL],stimulation index,[1],stronger stimulation than the rest of them
same,stimulation at the lowest concentration,[1]; second screening assay,provided stimulation even at the lowest concentration
YHIFYQILSNKKPEL (T cell epitope peptide) [YL],stimulation index,[1],consistently the strongest stimulation amongst the peptides
same,stimulation at the lowest concentration,[1]; second screening assay,provided stimulation even at the lowest concentration
Whole myosin: myosin extracted from human heart left ventricular wall; immunogen for EAM induction and stimulus in proliferation assays,increase in T cell proliferation against cardiac myosin,"[2]; 100 μg myosin in CFA + Pertussis toxin, vs control group with CFA and Pertussis toxin only",5-6 fold
same,anti-myosin T cell proliferation,"[2]; myosin 0.2, 2.0, 20 μg/ml in culture, n=5",increased
same,percentage of ejection fraction,"EAM induced DR4 mice [3]; EAM induction vs control with only CFA and Pertussis toxin, p=0.003",significant decrease
same,fractional shortening,"EAM induced DR4 mice [3]; EAM induction vs control with only CFA and Pertussis toxin, p=0.006",significant decrease
same,left ventricle systolic dimension,"EAM induced DR4 mice [3]; EAM induction, p=0.039, FIG. 6B",significant increase
same,stimulation,[1]; second screening assay,2 fold
same,mice with inflammation and tissue damage in the heart,EAM induced DR4 mice [4],5 out of 5
same,sudden death,DR4 mice,3 out of 5
same,circulating anti-myosin IgG1 levels,"[5]; pmax=0.0008, FIG. 4A",increased significantly
same,circulating anti-myosin IgG2c levels,"[5]; pmax=0.02, FIG. 4B",significantly increased
